The values that follow come from US12319666B2, “Hydrate of dimethylaminomicheliolide fumarate and preparation method therefor and use thereof” (priority 2020, dated 2025).

Data set [1] can be described thus: Crystal particle size (scanning electron micrograph of crystal morphology). In kind it is physicochemical. The settings on record: for average particle size: crystal product, SEM. Here is the method:
(§1) The crystal habit of the hydrate of dimethylaminomicheliolide fumarate is studied in the present disclosure, and a scanning electron micrograph thereof is shown in FIG. 3. —The crystal has a regular block crystal habit, and the surface of the particle is smooth without agglomeration, meanwhile, the crystal has a large average particle size that can reach 300 μm, a bulk density of 0.65 g/mL, and an angle of repose of 32°. The product features high bulk density and good fluidity. In comparison, the crystalline form A prepared using the natural cooling recrystallization method disclosed in patent CN103724307B has a primary particle size of 35.8 μm, a bulk density of mere 0.270 g/mL and an angle of repose of 62°, and a scanning electron micrograph thereof is shown in FIG. 4.

For data set [2] the following is noted: cited from earlier work.
Data set [3] in a line: Angle of repose (fluidity). In kind it is physicochemical. Particulars: crystal product without auxiliary materials. The protocol:
as §1
The hydrate of the present disclosure has good fluidity and is more suitable for being prepared as a medicament at a later stage. It is well known that the fluidity of an active ingredient per se is generally hard to meet the filling conditions of capsules or microcapsules, and auxiliary materials such as pregelatinized starch, silica and magnesium stearate are required to meet the requirements for fluidity by the filling conditions so as to achieve the desired quality of dosage forms and production efficiency. Taking the specification of 100 mg capsules as an example, if other forms such as crystalline form A are used as active ingredients, the weight of capsule contents reaches about 310 mg after auxiliary materials are added, and thus the largest 0 # capsule shell must be used, and larger specification such as capsules containing 200 mg of active ingredients cannot be prepared.

The nature of data set [4]: Bulk density of crystal product. Type of data set: physicochemical. Here is the method:
as §1

Data set [5] can be described thus: Solubility in solvents (qualitative). In kind it is physicochemical.
A short description of data set [6]: Stability of the hydrate at 45° C., humidity 75%, 30 days (XRD and purity analysis). Type of data set: physicochemical. The protocol:
The stability of the hydrate of dimethylaminomicheliolide fumarate is investigated in the present disclosure. The […] crystal compound product is uniformly distributed in an open Petri dish. The temperature is controlled at 45° C., the humidity is 75%, and the sample thickness is less than 5 mm. The Petri dish is hermetically placed in a drier for 30 days. Then the samples placed for 7, 14 and 30 days were examined by XRD and compared with the results on day 0. […] Meanwhile, the samples at days 7, 14 and 30 are subjected to purity analysis. […] By combining the XRD patterns and the results of the purity analysis, the hydrate of dimethylaminomicheliolide fumarate is shown to have good stability.

The conditions of data set [7]: background statement; cited from earlier work.

Molecules are shown by their SMILES.

`CC1=C2CC[C@@](C)(O)[C@@H]2[C@H]2OC(=O)[C@@H](CN(C)C)[C@@H]2CC1.O=C(O)/C=C/C(=O)O` [crystalline form A, dimethylaminomicheliolide fumarate] gave a primary particle size in data set [1] (form A from natural cooling recrystallization, method of CN103724307B) of 35.8 μm. In data set [2] (prone to transformation), the “stability of the crystalline form” value was “poor stability”. This compound had an angle of repose in data set [3] of 62 °. For the same compound, in data set [4], the bulk density came to 0.270 g/mL.
Turning to `CC1=C2CC[C@@](C)(O)[C@@H]2[C@H]2OC(=O)[C@@H](CN(C)C)[C@@H]2CC1.O=C(O)/C=C/C(=O)O` [Example 9, hydrate of dimethylaminomicheliolide fumarate], the average particle size in data set [1] is recorded as ≤ 300 μm. In data set [3], this compound returned an angle of repose of 32.3 °. This compound also registered a bulk density in data set [4] of 0.645 g/mL.
For the compound `CC1=C2CC[C@@](C)(O)[C@@H]2[C@H]2OC(=O)[C@@H](CN(C)C)[C@@H]2CC1.O=C(O)/C=C/C(=O)O` [Dimethylaminomicheliolide fumarate], the solubility result in data set [5] (in cyclohexane, n-hexane, n-heptane, dichloromethane, isopropyl ether and toluene) is on record as “almost insoluble”; in data set [5] (in water, methanol, ethanol, tetrahydrofuran, 1,4-dioxane, acetone, acetonitrile and isopropyl acetate), “soluble”.
In the case of `CC1=C2CC[C@@](C)(O)[C@@H]2[C@H]2OC(=O)[C@@H](CN(C)C)[C@@H]2CC1.O=C(O)/C=C/C(=O)O` [Example 6, hydrate of dimethylaminomicheliolide fumarate], the average particle size in data set [1] is reported as ≤ 300 μm. This compound also returned an angle of repose in data set [3] of 32.3 °. This compound displayed a bulk density in data set [4] of 0.65 g/mL.
Consider `CC1=C2CC[C@@](C)(O)[C@@H]2[C@H]2OC(=O)[C@@H](CN(C)C)[C@@H]2CC1.O=C(O)/C=C/C(=O)O` [Example 5, hydrate of dimethylaminomicheliolide fumarate], for which the average particle size in data set [1] was ≤ 300 μm. Further, the angle of repose in data set [3] came to 32 °. The compound further gave a bulk density in data set [4] of 0.645 g/mL.
On to `CC1=C2CC[C@@](C)(O)[C@@H]2[C@H]2OC(=O)[C@@H](CN(C)C)[C@@H]2CC1.O=C(O)/C=C/C(=O)O` [Example 4, hydrate of dimethylaminomicheliolide fumarate], for which the average particle size in data set [1] was ≤ 300 μm. The compound further gave an angle of repose in data set [3] of 32.2 °. The bulk density in data set [4] came out at 0.659 g/mL.
For `CC1=C2CC[C@@](C)(O)[C@@H]2[C@H]2OC(=O)[C@@H](CN(C)C)[C@@H]2CC1.O=C(O)/C=C/C(=O)O` [Example 3, hydrate of dimethylaminomicheliolide fumarate], in that order: ≤ 300 μm, 32 ° and 0.65 g/mL.
For `CC1=C2CC[C@@](C)(O)[C@@H]2[C@H]2OC(=O)[C@@H](CN(C)C)[C@@H]2CC1.O=C(O)/C=C/C(=O)O` [Example 2, hydrate of dimethylaminomicheliolide fumarate] the same measures were ≤ 300 μm, 32 ° and 0.655 g/mL.
As to `CC1=C2CC[C@@](C)(O)[C@@H]2[C@H]2OC(=O)[C@@H](CN(C)C)[C@@H]2CC1.O=C(O)/C=C/C(=O)O` [hydrate of dimethylaminomicheliolide fumarate], the average particle size in data set [1] is reported as ≤ 300 μm. Moreover, the “change in purity vs day 0” value in data set [6] (day 7) stood at 0.015%; in data set [6] (day 14) it was 0.027%; in data set [6] (day 30) it was 0.046%. Besides, the “change in the XRD pattern” value in data set [6] (days 7, 14 and 30 vs day 0) is listed as “no significant change”. Also, the angle of repose in data set [3] and in data set [3] (listed as hydrate of dimethylaminomicheliolide fumarate in the crystalline form D) was 32 ° throughout. The compound also had a bulk density in data set [4] of 0.65 g/mL.
For `CC1=C2CC[C@@](C)(O)[C@@H]2[C@H]2OC(=O)[C@@H](CN(C)C)[C@@H]2CC1.O=C(O)/C=C/C(=O)O` [Example 8, hydrate of dimethylaminomicheliolide fumarate], the average particle size in data set [1] is listed as ≤ 300 μm. This compound also registered an angle of repose in data set [3] of 32.1 °. This compound also had a bulk density in data set [4] of 0.654 g/mL.
Take `CC1=C2CC[C@@](C)(O)[C@@H]2[C@H]2OC(=O)[C@@H](CN(C)C)[C@@H]2CC1` [DMAMCL, dimethylaminomicheliolide]: the “stability on long-term storage” value in data set [2] (background statement) was “unstable”. In addition, the solubility in water result in data set [7] is “improved solubility in water to a certain degree relative to MCL”.
On to `CC1=C2CC[C@@](C)(O)[C@@H]2[C@H]2OC(=O)[C@@H](CN(C)C)[C@@H]2CC1.O=C(O)/C=C/C(=O)O` [Example 7, hydrate of dimethylaminomicheliolide fumarate], for which, in data set [1], the average particle size is given as ≤ 300 μm. Further, the angle of repose in data set [3] came to 32 °. Besides, the bulk density in data set [4] is 0.65 g/mL.
For `CC1=C2CC[C@@](C)(O)[C@@H]2[C@H]2OC(=O)[C@@H](CN(C)C)[C@@H]2CC1.O=C(O)/C=C/C(=O)O` [Example 1, hydrate of dimethylaminomicheliolide fumarate], in that order: ≤ 300 μm, 32.5 ° and 0.646 g/mL.
Turning to `C=C1C(=O)O[C@H]2[C@H]1CCC(C)=C1CC[C@@](C)(O)[C@@H]12` [micheliolide], in data set [7], the solubility in water result is “poor solubility in water”.
